How the values were obtained:
[1] = test system: B. thetaiotamicron (ATCC strain 29148); assay: Droplet monoculture growth on different carbon sources in defined medium (MicDrop); format: cell-based, Bacteroides thetaiotaomicron; conditions: for growth of the isolate in droplets compared to control defined medium without carbon source: B. theta isolate, defined medium with a single carbon source, endpoint DNA quantity (FIG. 4); for growth in droplets on carbohydrate (growth / no growth): B. thetaiotaomicron ATCC 29148 in microfluidic droplets, consistent with 96-well plates (FIG. 4)
Procedure: By using a defined media, a function of individual bacteria (in this case growth on a substrate of interest) can be determined. Bacteria were isolated from a fecal community of a healthy donor and cultured in defined medium. To identify carbon sources on which an individual isolated bacterium can grow, carbon sources of varying complexity were added individually to the defined media. Growth was measured at the endpoint, and the DNA was extracted, sequenced and quantified by qPCR as provided in Example 2. In this assay, the endpoint growth of an individual bacteria cultured in a defined medium with the addition of one carbon source was compared to the end point growth measurement of the same bacteria in the defined medium with only the addition of water. (FIG. 4). This comparison enables assessing the ability of an individual microbe to use a single carbon source for growth. As an example in FIG. 4, an isolate of the bacterial strain B. thetaiotamicron (ATCC® strain 29148) was cultured in droplets with defined medium containing the carbon source Pullalan, Levan, Lamanarin or no carbon source (control), and growth was compared. (FIG. 4). […] (FIG. 4). […] (FIG. 5).
(A) Microbial communities isolated from human stool samples were examined for carbon consumption in a custom microfluidic screen. Cells were restarted from frozen stock in mGAM (as above) and then minimal medium containing glucose and galactose (SIGMA®) as the sole carbon sources. Following determination of the loading concentration, the cell culture stocks were washed twice by centrifugation and resuspended in 2× minimal medium. Cells were filtered using a 50 μm filter (CELLTRICS®, SYSMEX®) to remove multi-cell clumps. The filtered cells suspension was then added to each sample formulation at the target concentration. Each sample was a 50:50 mixture of 1% carbon solution and 2× minimal medium. To prevent chip fouling, the oil inlet was equipped with 10 μm inline filters (P-276, IDEX®). Droplet generation in the anaerobic chamber was monitored using a bright field microscope (44347, CELESTRON®). Droplet cultures were stored 5 mL polypropylene tubes (352063, FALCON®) with the caps closed in an anaerobic incubator at 37° C. Following the second day of incubation, cultures were moved to a −20° C. freezer for storage prior to DNA extraction. Pre-processing of the droplet data designated samples with qPCR values below the mean no-carbon control as zero growth. Then, relative abundance data was converted to absolute abundance by multiplying each sample by the corresponding qPCR value. The median was then calculated across three replicate samples and matched no-carbon controls were subtracted from each sample. Finally, a growth threshold of 88% of maximum growth was applied, as determined from validation analysis (FIG. 15, Validation of prebiotic utilization assays)
To test whether the MicDrop method could be used to assay bacterial prebiotic metabolism (FIG. 12A), a previously characterized type strain Bacteroides thetaiotaomicron ATCC 29148 was loaded into microfluidic droplets and standard 96-well plates. Consistent with both prior studies and well-plate experiments disclosed herein, B. thetaiotaomicron ATCC 29148 grew in droplets on pullulan and levan, but not on lamanarin or a no carbohydrate control (FIG. 4). […] Using 96-well plate experiments as a reference (FIG. 12B, FIG. 18), the accuracy of the MicDrop prebiotic assay was determined to be 87% (Table 8). […]

gut bacteria = assay: Xenobiotic growth screen of gut bacteria for beta-glucuronidases in droplets; format: cell-based, human gut bacteria; conditions: defined media, glucose positive control, water negative control (FIG. 6)
From the text: Thus, in certain aspects of this disclosure, the methods of the invention can be used to identify or screen bacteria from the gut that can utilize, and thus inactivate, specific xenobiotic compounds. In certain embodiments of this aspect, the methods of the invention can be used to screen gut bacteria for beta-glucuronidases, which are present in bacteria that can inactivate certain man-made therapeutics. […] (FIG. 6). […] Thus, in some embodiments, the present disclosure provides for identification of bacterial taxa that contain putative beta-glucuronidases. Using the method disclosed herein, bacteria are isolated by encapsulation in droplets of defined media with or without a specific xenobiotic. DNA is sampled from the encapsulated droplets at one or more set time points during incubation, and absolute growth is then computed as previously disclosed herein. […] To determine gut bacterial strain response to xenobiotics, gut bacteria were screened for beta-glucuronidases, which are present in bacteria that can inactivate certain man-made therapeutics. […] (FIG. 6). […] Thus, the assay identified bacterial taxa that contain putative beta-glucuronidases. Glucose and water are positive and negative controls, respectively. (FIG. 6).

| Compound | growth of the isolate in droplets compared to control defined medium without carbon source [1] | growth in droplets on carbohydrate (growth / no growth) [1] | bacterial growth on substrate (gut bacteria) |
| --- | --- | --- | --- |
| pullulan [Pullalan] | greater growth | grew | – |
| levan | greater growth | grew | – |
| lamanarin | the same or slightly worse | – | – |
| O=C(O)[C@H]1O[C@@H](Oc2ccc([N+](=O)[O-])cc2)[C@H](O)[C@@H](O)[C@@H]1O [PNPG, 4-Nitrophenyl-Beta-D-glucuronic acid, reference compound] | – | – | bacterial growth |
| O=C[C@H](O)[C@@H](O)[C@H](O)[C@H](O)C(=O)O [glucuronic acid] | – | – | bacterial growth |

Source: patent US20190241943A1, “RAPID PHENOTYPING AND IDENTIFICATION OF MICROBES FROM A COMPLEX MICROBIAL COMMUNITY” (Duke University, priority 2018, published 2019)
